From patent publication US9073821B2, “Hydroxamic acid derivative” (priority 2010, dated 2015)

Each compound was assayed against Pseudomonas aeruginosa LpxC enzyme (Pseudomonas aeruginosa (strain ATCC 15692 / DSM 22644 / CIP 104116 / JCM 14847 / LMG 12228 / 1C / PRS 101 / PAO1), UniProt P47205) (assay: biochemical). Settings: class symbols A/B/C by IC50; Table 3; read-out: Enzyme inhibitory activity (inhibitory activity on Pseudomonas aeruginosa LpxC enzyme).
Format: biochemical

IC50 [µM] | Compound
< 0.01 | CCOC1CN(Cc2ccc(C#Cc3ccc(C(=O)N(C)C(C(=O)NC)C(=O)NO)cc3)c(C)c2)C1 (stereo not shown) [Compound 568, 2-[{[4-({4-[(3-ethoxyazetidin-1-yl)methyl]-2-methylphenyl}ethynyl)phenyl]carbonyl}(methyl)amino]-N-hydroxy-N′-methylpropanediamide]
< 0.01 | CNC(=O)C(C(=O)NO)N(C)C(=O)c1ccc(C#Cc2ccc(CN3CC(=CCOC)C3)cc2)cc1 (stereo not shown) [Compound 530, N-hydroxy-2-[({4-[(4-{[3-(2-methoxyethylidene)azetidin-1-yl]methyl}phenyl)ethynyl]phenyl}carbonyl)(methyl)amino]-N′-methylpropanediamide]
0.01 to 0.1 | CCn1cc(C#Cc2ccc(C(=O)N(C)C(C(=O)NC)C(=O)NO)cc2)cn1 (stereo not shown) [Compound 517, 2-[({4-[(1-ethyl-1H-pyrazol-4-yl)ethynyl]phenyl}carbonyl)(methyl)amino]-N-hydroxy-N′-methylpropanediamide]

Same assay, conditions: inhibitory activity on Pseudomonas aeruginosa LpxC enzyme, class symbols A/B/C; read-out: Enzyme inhibitory activity

Compound | IC50 [µM]
CNC(=O)C(C(=O)NO)N(C)C(=O)c1ccc(-c2ccc(N(C)C(=O)OC(C)(C)C)c(C)c2)cc1 (stereo not shown) [Compound 44, tert-butyl(4′-{[1-(hydroxyamino)-3-(methylamino)-1,3-dioxopropan-2-yl](methyl)carbamoyl}-3-methylbiphenyl-4-yl)methylcarbamate] | 0.01 to 0.1
CNC(=O)C(C(=O)NO)N(C)C(=O)c1ccc(-c2ccc3ncccc3c2)cc1 (stereo not shown) [Compound 200, N-hydroxy-N′-methyl-2-{methyl[4-(quinolin-6-yl)benzoyl]amino}propanediamide] | < 0.01
CC(=O)N(C)CCNC(=O)C(NC(=O)c1ccc(-c2ccc(OCCO)cc2)cc1)C(=O)NO (stereo not shown) [Compound 145, N-{2-[acetyl(methyl)amino]ethyl}-N′-hydroxy-2-({[4′-(2-hydroxyethoxy)biphenyl-4-yl]carbonyl}amino)propanediamide] | 0.01 to 0.1
CNC(=O)C(C(=O)NO)N(C)C(=O)c1ccc(-c2ccc(C3OCCO3)cc2)cc1 (stereo not shown) [Compound 187, 2-[{[4′-(1,3-dioxolan-2-yl)biphenyl-4-yl]carbonyl}(methyl)amino]-N-hydroxy-N′-methylpropanediamide] | < 0.01
CNC(=O)C(C(=O)NO)N(C)C(=O)c1ccc(CCc2ccc(NCCO)cc2)cc1 (stereo not shown) [Compound 176, N-hydroxy-2-{[4-(2-{4-[(2-hydroxyethyl)amino]phenyl}ethyl)benzoyl](methyl)amino}-N′-methylpropanediamide] | < 0.01
CC(C)(C)CNC(=O)C(NC(=O)c1ccc(-c2ccc(OCCO)cc2)cc1)C(=O)NO (stereo not shown) [Compound 136, N-(2,2-dimethylpropyl)-N′-hydroxy-2-({[4′-(2-hydroxyethoxy)biphenyl-4-yl]carbonyl}amino)propanediamide] | 0.01 to 0.1
O=C(NC(C(=O)NO)C(=O)NCC1COc2ccccc2O1)c1ccc(-c2ccc(OCCO)cc2)cc1 (stereo not shown) [Compound 149, N-(2,3-dihydro-1,4-benzodioxin-2-ylmethyl)-N′-hydroxy-2-({[4′-(2-hydroxyethoxy)biphenyl-4-yl]carbonyl}amino)propanediamide] | < 0.01
CNC(=O)C(C(=O)NO)N(C)C(=O)c1ccc(-c2ccccc2C)cc1 (stereo not shown) [Compound 18, N-hydroxy-N′-methyl-2-{methyl[(2′-methylbiphenyl-4-yl)carbonyl]amino}propanediamide] | 0.01 to 0.1
CNC(=O)C(C(=O)NO)N(C)C(=O)c1ccc(C#Cc2ccc(CN(C)C)cc2)cc1 (stereo not shown) [Compound 202, 2-{[4-({4-[(dimethylamino)methyl]phenyl}ethynyl)benzoyl](methyl)amino}-N-hydroxy-N′-methylpropanediamide] | 0.01 to 0.1
CNC(=O)C(C(=O)NO)N(C)C(=O)c1ccc(-c2ccc(C)c(F)c2)cc1 (stereo not shown) [Compound 28, 2-{[(3′-fluoro-4′-methylbiphenyl-4-yl)carbonyl](methyl)amino}-N-hydroxy-N′-methylpropanediamide] | < 0.01
CNC(=O)C(C(=O)NO)N(C)C(=O)c1ccc(CCc2ccc(CCN3CCOCC3)cc2)cc1 (stereo not shown) [Compound 209, N-hydroxy-N′-methyl-2-{methyl[4-(2-{4-[2-(morpholin-4-yl)ethyl]phenyl}ethyl)benzoyl]amino}propanediamide] | < 0.01
O=C(NC(C(=O)NO)C(=O)NCCCc1ccccc1)c1ccc(-c2ccc(OCCO)cc2)cc1 (stereo not shown) [Compound 126, N-hydroxy-2-({[4′-(2-hydroxyethoxy)biphenyl-4-yl]carbonyl}amino)-N′-(3-phenylpropyl)propanediamide] | < 0.01
CNC(=O)C(C(=O)NO)N(C)C(=O)c1ccc(-c2ncccc2F)cc1 (stereo not shown) [Compound 107, 2-{[4-(3-fluoropyridin-2-yl)benzoyl](methyl)amino}-N-hydroxy-N′-methylpropanediamide] | > 0.1
CNC(=O)C(C(=O)NO)N(C)C(=O)c1ccc(-c2ccc3c(ccn3CCCCO)c2)cc1 (stereo not shown) [Compound 26, N-hydroxy-2-[{4-[1-(4-hydroxybutyl)-1H-indol-5-yl]benzoyl}(methyl)amino]-N′-methylpropanediamide] | < 0.01
CN(C(=O)c1ccc(-c2ccccc2)cc1)C(C(=O)NO)C(=O)NCc1ncccn1 (stereo not shown) [Compound 170, 2-[(biphenyl-4-ylcarbonyl)(methyl)amino]-N-hydroxy-N′-(pyrimidin-2-ylmethyl)propanediamide] | > 0.1
CNC(=O)C(C(=O)NO)N(C)C(=O)c1ccc(-c2ccc([C@@H](C)NC(=O)OC(C)(C)C)cc2)cc1 (stereo partly drawn) [Compound 34, tert-butyl[(1R)-1-(4′-{[1-(hydroxyamino)-3-(methylamino)-1,3-dioxopropan-2-yl](methyl)carbamoyl}biphenyl-4-yl)ethyl]carbamate] | 0.01 to 0.1
CNC(=O)C(C(=O)NO)N(C)C(=O)c1ccc(-c2ccc(OC(F)F)cc2)cc1 (stereo not shown) [Compound 51, 2-[{[4′-(difluoromethoxy)biphenyl-4-yl]carbonyl}(methyl)amino]-N-hydroxy-N′-methylpropanediamide] | < 0.01
CNC(=O)C(C(=O)NO)N(C)C(=O)c1ccc(-c2cccc(O)c2)cc1 (stereo not shown) [Compound 48, N-hydroxy-2-{[(3′-hydroxybiphenyl-4-yl)carbonyl](methyl)amino}-N′-methylpropanediamide] | 0.01 to 0.1

Further lines, results first:

IC50 [µM] | Compound
< 0.01 | CNC(=O)C(C(=O)NO)N(C)C(=O)c1ccc(C#Cc2ccc(CNCCS(C)(=O)=O)cc2)cc1 (stereo not shown) [Compound 378, N-hydroxy-N′-methyl-2-{methyl[(4-{[4-({[2-(methylsulfonyl)ethyl]amino}methyl)phenyl]ethynyl}phenyl)carbonyl]amino}propanediamide]
0.01 to 0.1 | CNC(=O)C(C(=O)NO)N(C)C(=O)c1ccc(-c2ccc(C(C)(C)O)cc2)cc1 (stereo not shown) [Compound 262, N-hydroxy-2-[{[4′-(2-hydroxypropan-2-yl)biphenyl-4-yl]carbonyl}(methyl)amino]-N′-methylpropanediamide]
< 0.01 | CNC(=O)C(C(=O)NO)N(C)C(=O)c1ccc(C#C/C=C/c2ccc(OC)nc2)cc1 (stereo not shown) [Compound 478, N-hydroxy-2-[({4-[(3E)-4-(6-methoxypyridin-3-yl)but-3-en-1-yn-1-yl]phenyl}carbonyl)(methyl)amino]-N′-methylpropanediamide]
< 0.01 | CNC(=O)C(C(=O)NO)N(C)C(=O)c1ccc(C#Cc2ccc(CN3CC4(COC4)C3)cc2)cc1 (stereo not shown) [Compound 322, N-hydroxy-N′-methyl-2-{methyl[(4-{[4-(2-oxa-6-azaspiro[3.3]hept-6-ylmethyl)phenyl]ethynyl}phenyl)carbonyl]amino}propanediamide]
0.01 to 0.1 | CNC(=O)C(C(=O)NO)N(C)C(=O)c1ccc(-c2ccncc2F)cc1 (stereo not shown) [Compound 448, 2-[{[4-(3-fluoropyridin-4-yl)phenyl]carbonyl}(methyl)amino]-N-hydroxy-N′-methylpropanediamide]
< 0.01 | CNC(=O)C(C(=O)NO)N(C)C(=O)c1ccc(-c2ccc3c(c2)OC(C)(C)O3)cc1 (stereo not shown) [Compound 269, 2-{[4-(2,2-dimethyl-1,3-benzodioxol-5-yl)benzoyl](methyl)amino}-N-hydroxy-N′-methylpropanediamide]
0.01 to 0.1 | CCNC(=O)C(C(=O)NO)N(C)C(=O)c1ccc(-c2ccccc2)cc1 (stereo not shown) [Compound 242, 2-[(biphenyl-4-ylcarbonyl)(methyl)amino]-N-ethyl-N′-hydroxypropanediamide]
0.01 to 0.1 | CNC(=O)C(C(=O)NO)N(C)C(=O)c1ccc(C#Cc2ccc(C(C)N)cc2)cc1 (stereo not shown) [Compound 358, 2-{[(4-{[4-(1-aminoethyl)phenyl]ethynyl}phenyl)carbonyl](methyl)amino}-N-hydroxy-N′-methylpropanediamide]
0.01 to 0.1 | CNC(=O)C(C(=O)NO)N(C)C(=O)c1cnc(-c2ccc(OC)cc2)c(F)c1 (stereo not shown) [Compound 457, 2-[{[5-fluoro-6-(4-methoxyphenyl)pyridin-3-yl]carbonyl}(methyl)amino]-N-hydroxy-N′-methylpropanediamide]
0.01 to 0.1 | CNC(=O)C(C(=O)NO)N(C)C(=O)c1ccc(CCc2ccc(CCN3CCCOCC3)cc2)cc1 (stereo not shown) [Compound 210, N-hydroxy-N′-methyl-2-{methyl[4-(2-{4-[2-(1,4-oxazepan-4-yl)ethyl]phenyl}ethyl)benzoyl]amino}propanediamide]
0.01 to 0.1 | CNC(=O)C(C(=O)NO)N(C)C(=O)c1ccc(OCc2ccccc2)cc1 (stereo not shown) [Compound 454, 2-[{[4-(benzyloxy)phenyl]carbonyl}(methyl)amino]-N-hydroxy-N′-methylpropanediamide]
< 0.01 | CNC(=O)C(C(=O)NO)N(C)C(=O)c1ccc(-c2ccc(C(C)(F)F)cc2)cc1 (stereo not shown) [Compound 253, 2-[{[4′-(1,1-difluoroethyl)biphenyl-4-yl]carbonyl}(methyl)amino]-N-hydroxy-N′-methylpropanediamide]
0.01 to 0.1 | CNC(=O)C(C(=O)NO)N(C)C(=O)c1ccc(-c2cc(Cl)cc(Cl)c2)cc1 (stereo not shown) [Compound 222, 2-{[(3′,5′-dichlorobiphenyl-4-yl)carbonyl](methyl)amino}-N-hydroxy-N′-methylpropanediamide]
